Broadly, the inhibition is how much of the control response was suppressed.

Three molecules from patent US20070202079A1, “Therapeutic compositions and methods useful in modulating protein tyrosine phosphatases” (priority 2006, published 2007) can be followed below.

One assay deals with T1, MKP1 (Homo sapiens, UniProt P28562).
T1 construct: a pGEX construct containing the coding region of MKP1 cDNA derived by RT-PCR; made in house; host or cells: DH5a bacteria (E. coli)
T1 sequence (P28562 1-367): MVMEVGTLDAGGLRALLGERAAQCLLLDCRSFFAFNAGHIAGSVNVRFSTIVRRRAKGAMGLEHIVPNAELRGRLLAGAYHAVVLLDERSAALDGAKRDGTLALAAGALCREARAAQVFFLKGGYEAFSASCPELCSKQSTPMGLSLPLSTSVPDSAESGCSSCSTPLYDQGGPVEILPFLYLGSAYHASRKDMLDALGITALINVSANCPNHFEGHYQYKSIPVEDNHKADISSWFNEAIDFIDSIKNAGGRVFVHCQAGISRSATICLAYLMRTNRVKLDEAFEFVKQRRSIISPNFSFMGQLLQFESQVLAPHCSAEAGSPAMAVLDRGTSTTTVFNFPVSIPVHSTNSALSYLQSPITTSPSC
Nature of the assay: in vitro PTPase assay, GST/MKP1. Format: biochemical. Conditions: for inhibition of MKP1: levamisole, pentamidine, ketoconazole. The method, then: In vitro PTPase activities were measured using the commercial protein tyrosine phosphatase assay kit (Upstate Biotechnology, Inc. (“UBI”)) following established procedure known to one of skill in the art. This assay measures the in vitro dephosphorylation of a synthetic phosphotyrosine peptide of the sequence Arg-Arg-Leu-Ile-Glu-Asp-Ala-Gle-T- -yr-Ala-Ala-Arg-Gly, wherein the tyrosine is phosphorylated (SEQ ID NO: 3). Briefly, 0.01 μg of GST/PTPase fusion proteins was incubated in 50 μl of Tris buffer (10 mM Tris, pH 7.4) containing different concentrations of inhibitors or chemicals (0-1,000 μg/ml) at 22° C. for 10 minutes, followed by addition of 0.2 mM of the phosphotyrosine peptide and incubation at 22° C. for 18 hours. 100 μl of Malachite Green solution was added and incubated for 5 minutes, and the absorbance at 660 nm was measured after 5 minutes.
In vitro PTPase assays were used to determine the effects of levamisole (Sigma), pentamidine (American Pharmaceutical Partners, Inc.), and ketoconazole (Sigma) on recombinant PTPases, following established procedures (Pathak et al., J. Immunol. 167, 3391 (2001); Pathak et al., Leukemia 16, 2285 (2002), Yi et al., J. Immunol. 169, 5978 (2002)) using a synthetic phosphotyrosine peptide or DiFMUP as the substrate as detailed above in section I.A.2.

Another assay has as its system WM9 cells. Put plainly: WM9 cell growth, MTT. Format: cell-based, human. As for the experimental part:
For cell proliferation assays, cells were grown in 10% FCS culture medium containing various amounts of IFNs and/or sodium stibogluconate in 96 well plates and cultured at 37° C. for 3 or 6 days as indicated. The numbers of viable cells in proliferation assays were determined by MTT assays as described in Phatak et al., J. Immunol. 167, 3391 (2001).
Renca (Murphy, G. P., and W. J. Hrushesky. 1973. A murine renal cell carcinoma. J Natl Cancer Inst 50:1013), Jurkat (Gillis, S., and J. Watson. 1980. Biochemical and biological characterization of lymphocyte regulatory molecules. V. Identification of an interleukin 2-producing human leukemia T cell line. J Exp Med 152:1709) and WM9 (Forsberg, K., I. Valyi-Nagy, C. H. Heldin, M. Herlyn, and B. Westermark. 1993. Platelet-derived growth factor (PDGF) in oncogenesis: development of a vascular connective tissue stroma in xenotransplanted human melanoma producing PDGF-BB. Proc Natl Acad Sci USA 90:393) cell lines were obtained from a colleague at the Cleveland Clinic Foundation (CCF) and cultured in RPMI 1640 medium supplemented with 10% fetal calf serum (FCS). Recombinant IL-2 (Proleukin, 22 million IU/1.3 mg, Chiron, Emeryville, Calif.) was purchased from the CCF pharmacy. SSG has been described previously (Yi, T., M. K. Pathak, D. J. Lindner, M. E. Ketterer, C. Farver, and E. C. Borden. 2002. Anticancer activity of sodium stibogluconate in synergy with IFNs. J Immunol 169:5978).
NIH3T3 (Yi, et al., Blood 85, 87 (1995)), WM9 (Forsberg, et al., Proc. Nat. Acad Sci. USA 90, 393 (1993)), DU145 (Mickey, et al., Cancer Res. 37, 4049 (1977)), LoVo (Drewinko, et al., Cancer Res. 36, 467 (1976)), HEY (Buick, et al., Cancer Res. 45, 3668 (1985)), U251 (Yoshida, et al., Cancer 50, 410 (1982)), A549 (Giard, et al., J. Natl. Cancer Inst. 51, 1417 (1973)) and SK-N-SH (Helson, et al., Cancer Res. 35, 2594 (1975)) cell lines have been described and were cultured in RPMI 1640 supplemented with 10% fetal calf serum (FCS). For measurement of sodium stibogluconate effects on cell growth in vitro, cells were cultured in the absence (−) or presence (+) of various amounts of sodium stibogluconate for 6 days with viable cells quantified by MTT assays (Mosmann, J. Immunol. Methods 65, 55 (1983)). Percentages of growth inhibition by sodium stibogluconate were calculated (.+−.x%).

Structures are written as SMILES. Where two headings read alike, the source gives them in different places.

Take `O.O.O.O.O.O.O.O.O.O=C([O-])[C@@H]1[O][Sb]2([O-])([O][Sb]34([OH])[O][C@H]([C@H](O)CO)[C@H]([O]3)[C@H](C(=O)[O-])[O]4)[O][C@H]([C@H](O)CO)[C@@H]1[O]2.[Na+].[Na+].[Na+]` [sodium stibogluconate]: the figures for the “inhibitory activity against MKP1” value at MKP1 and against MKP1 (listed as SS) were “no obvious inhibitory activity” and “no obvious effects”, respectively. Further, the “WM9 cells, single agent” value with WM9 cells (50 μg/ml and 100 μg/ml, day 6 culture) was “killed all cells”. The “WM9 cell growth in culture” value in the assay on WM9 cells (SSG, 6 days, comparable conditions) is given as “inhibited by SSG in a dose-dependent manner”.

As to `N=C(N)c1ccc(OCCCCCOc2ccc(C(=N)N)cc2)cc1` [pentamidine], the “inhibition of MKP1” value against MKP1 is “substantial inhibition”. Moreover, the “effect on IFN-alpha-induced growth inhibition of WM9” value in the assay with WM9 cells (most obviously at 0.625-1.25 μg/ml) is recorded as “augmented IFN-alpha-induced growth inhibition”. Also, the “growth inhibition of WM9 cells” value in the assay on WM9 cells (single agent, 2.5-5 μg/ml, 6 days) was 86-97%.

As for `CC(=O)N1CCN(c2ccc(OCC3COC(Cn4ccnc4)(c4ccc(Cl)cc4Cl)O3)cc2)CC1` (centres unmarked) [ketoconazole], at MKP1, the “inhibition of MKP1” value is recorded as “substantial inhibition”. Further, the “effect on IFN-alpha activity, WM9” value with WM9 cells (40 μg/ml) is recorded as “minor augmenting effect”. The “activity against WM9 cells” value in the assay with WM9 cells (0.625-20 μg/ml, single agent or with IFN-alpha) is recorded as “no apparent activity”. Further, the inhibition at 40 µg/mL with WM9 cells (Homo sapiens, WM9, 144 h, single agent, 40 μg/ml, 6 days) amounted to 67%.
